Legend:
UACC-62 = test: Growth inhibition of human UACC62 cells after 48 hrs by sulforhodamine B assay; format: functional; settings: UACC-62, 48 h
M14 = test: Growth inhibition of human M14 cells after 48 hrs by sulforhodamine B assay; format: functional; settings: M14, 48 h
IGROV-1 = test: Growth inhibition of human IGROV1 cells after 48 hrs by sulforhodamine B assay; format: functional; settings: IGROV-1, 48 h
OVCAR-3 = test: Growth inhibition of human OVCAR3 cells after 48 hrs by sulforhodamine B assay; format: functional; settings: OVCAR-3, 48 h
ACHN = test: Growth inhibition of human ACHN cells after 48 hrs by sulforhodamine B assay; format: functional
DU-145 = test: Growth inhibition of human DU145 cells after 48 hrs by sulforhodamine B assay; format: functional; settings: DU-145, 48 h
SN12C = test: Growth inhibition of human SN12C cells after 48 hrs by sulforhodamine B assay; format: functional
PC-3 = test: Growth inhibition of human PC3 cells after 48 hrs by sulforhodamine B assay; format: functional; settings: PC-3, 48 h
A498 = test: Growth inhibition of human A498 cells after 48 hrs by sulforhodamine B assay; format: functional; settings: A498, 48 h
786-0 = test: Growth inhibition of human 786-0 cells after 48 hrs by sulforhodamine B assay; format: functional; settings: 786-0, 48 h
CAKI-1 = test: Growth inhibition of human CAKI-1 cells after 48 hrs by sulforhodamine B assay; format: functional; settings: CAKI-1, 48 h
OVCAR-5 = test: Growth inhibition of human OVCAR5 cells after 48 hrs by sulforhodamine B assay; format: functional; settings: OVCAR-5, 48 h
Ovis aries = organism: Ovis aries; test: Inhibition of sheep brain tubulin polymerization at 100 uM using DAPI by fluorimetry
MOLT-4 = test: Growth inhibition of human MOLT4 cells after 48 hrs by sulforhodamine B assay; format: functional; settings: MOLT-4, 48 h
Malme-3M = test: Growth inhibition of human MALME-3M cells after 48 hrs by sulforhodamine B assay; format: functional
COLO 205 = test: Growth inhibition of human COLO205 cells after 48 hrs by sulforhodamine B assay; format: functional; settings: COLO 205, 48 h
NCI-H23 = test: Growth inhibition of human NCI-H23 cells after 48 hrs by sulforhodamine B assay; format: functional; settings: NCI-H23, 48 h
RPMI-8226 = test: Growth inhibition of human RPMI8226 cells after 48 hrs by sulforhodamine B assay; format: functional; settings: RPMI-8226, 48 h
A549 = test: Growth inhibition of human A549/ATCC cells after 48 hrs by sulforhodamine B assay; format: functional; settings: A549, 48 h
HCT-15 = test: Growth inhibition of human HCT15 cells after 48 hrs by sulforhodamine B assay; format: functional; settings: HCT-15, 48 h
[1] = Growth inhibition of human NCI-ADR-RES cells after 48 hrs by sulforhodamine B assay; format: functional
CCRF-CEM = test: Growth inhibition of human CCRF-CEM cells after 48 hrs by sulforhodamine B assay; format: functional
SR = test: Growth inhibition of human SR cells after 48 hrs by sulforhodamine B assay; format: functional
NCI-H522 = test: Growth inhibition of human NCI-H522 cells after 48 hrs by sulforhodamine B assay; format: functional; settings: NCI-H522, 48 h
SK-MEL-5 = test: Growth inhibition of human SK-MEL-5 cells after 48 hrs by sulforhodamine B assay; format: functional; settings: SK-MEL-5, 48 h
SK-MEL-28 = test: Growth inhibition of human SK-MEL-28 cells after 48 hrs by sulforhodamine B assay; format: functional; settings: SK-MEL-28, 48 h
HL-60(TB) = test: Growth inhibition of human HL-60(TB) cells after 48 hrs by sulforhodamine B assay; format: functional; settings: HL-60, 48 h
HOP-92 = test: Growth inhibition of human HOP92 cells after 48 hrs by sulforhodamine B assay; format: functional; settings: HOP-92, 48 h
K562 = test: Growth inhibition of human K562 cells after 48 hrs by sulforhodamine B assay; format: functional; settings: K562, 48 h
KM12 = test: Growth inhibition of human KM12 cells after 48 hrs by sulforhodamine B assay; format: functional; settings: KM12, 48 h
MCF7 = test: Growth inhibition of human MCF7 cells after 48 hrs by sulforhodamine B assay; format: functional; settings: MCF7, 48 h
SF-295 = test: Growth inhibition of human SF295 cells after 48 hrs by sulforhodamine B assay; format: functional; settings: SF-295, 48 h
SK-MEL-2 = test: Growth inhibition of human SK-MEL-2 cells after 48 hrs by sulforhodamine B assay; format: functional; settings: SK-MEL-2, 48 h
[2] = Growth inhibition of human HCC2998 cells after 48 hrs by sulforhodamine B assay; format: functional; settings: HCC 2998, 48 h
NCI-H460 = test: Growth inhibition of human NCI-H460 cells after 48 hrs by sulforhodamine B assay; format: functional; settings: NCI-H460, 48 h
SF-268 = test: Growth inhibition of human SF268 cells after 48 hrs by sulforhodamine B assay; format: functional; settings: SF-268, 48 h
OVCAR-8 = test: Growth inhibition of human OVCAR8 cells after 48 hrs by sulforhodamine B assay; format: functional; settings: OVCAR-8, 48 h
SNB-75 = test: Growth inhibition of human SNB75 cells after 48 hrs by sulforhodamine B assay; format: functional; settings: SNB-75, 48 h
T47D = test: Growth inhibition of human T47D cells after 48 hrs by sulforhodamine B assay; format: functional
LOX IMVI = test: Growth inhibition of human LOXIMVI cells after 48 hrs by sulforhodamine B assay; format: functional
HT-29 = test: Growth inhibition of human HT-29 cells after 48 hrs by sulforhodamine B assay; format: functional; settings: HT-29, 48 h
SK-OV-3 = test: Growth inhibition of human SKOV3 cells after 48 hrs by sulforhodamine B assay; format: functional; settings: SK-OV-3, 48 h
OVCAR-4 = test: Growth inhibition of human OVCAR4 cells after 48 hrs by sulforhodamine B assay; format: functional; settings: OVCAR-4, 48 h
HCT-116 = test: Growth inhibition of human HCT116 cells after 48 hrs by sulforhodamine B assay; format: functional; settings: HCT-116, 48 h
[3] = Growth inhibition of human Hs 578T cells after 48 hrs by sulforhodamine B assay; format: functional
BT-549 = test: Growth inhibition of human BT549 cells after 48 hrs by sulforhodamine B assay; format: functional; settings: BT-549, 48 h
RXF 393 = test: Growth inhibition of human RXF393 cells after 48 hrs by sulforhodamine B assay; format: functional; settings: RXF 393, 48 h
MDA-MB-468 = test: Growth inhibition of human MDA-MB-468 cells after 48 hrs by sulforhodamine B assay; format: functional; settings: MDA-MB-468, 48 h
HOP-62 = test: Growth inhibition of human HOP62 cells after 48 hrs by sulforhodamine B assay; format: functional; settings: HOP-62, 48 h
MDA-MB-231 = test: Growth inhibition of human MDA-MB-231 cells after 48 hrs by sulforhodamine B assay; format: functional; settings: MDA-MB-231, 48 h
MDA-MB-435 = test: Growth inhibition of human MDA-MB-435 cells after 48 hrs by sulforhodamine B assay; format: functional; settings: MDA-MB-435, 48 h
SW-620 = test: Growth inhibition of human SW620 cells after 48 hrs by sulforhodamine B assay; format: functional; settings: SW-620, 48 h
SF-539 = test: Growth inhibition of human SF539 cells after 48 hrs by sulforhodamine B assay; format: functional; settings: SF-539, 48 h
TK-10 = test: Growth inhibition of human TK10 cells after 48 hrs by sulforhodamine B assay; format: functional; settings: TK-10, 48 h
UACC-257 = test: Growth inhibition of human UACC257 cells after 48 hrs by sulforhodamine B assay; format: functional; settings: UACC-257, 48 h
UO-31 = test: Growth inhibition of human UO31 cells after 48 hrs by sulforhodamine B assay; format: functional; settings: UO-31, 48 h

`COc1cc2cc(C(=O)N3c4ccccc4Sc4ccccc43)[nH]c2cc1OC` showed a GI50 (UACC-62) of 0.529 µM, a GI50 (M14) of 0.599 µM and a GI50 (IGROV-1) of 1.88 µM. For the same compound, the GI50 (OVCAR-3) was 0.366 µM, the GI50 (ACHN) was 0.611 µM and the GI50 (DU-145) was 0.679 µM. For the same compound, the GI50 (SN12C) was 3.86 µM, the GI50 (PC-3) was 0.435 µM and the GI50 (A498) was 0.215 µM. The GI50 (786-0) was 0.941 µM, the GI50 (CAKI-1) was 0.573 µM and the GI50 (OVCAR-5) was 2.59 µM. The inhibition (Ovis aries) was 36%, the GI50 (MOLT-4) was 1.54 µM and the GI50 (Malme-3M) was 0.503 µM. It also gave a GI50 (COLO 205) of 0.595 µM, a GI50 (NCI-H23) of 7.14 µM and a GI50 (RPMI-8226) of 0.902 µM. For the same compound, the GI50 (A549) was 0.656 µM, the GI50 (HCT-15) was 0.442 µM and the GI50 [1] was 0.571 µM. The GI50 (CCRF-CEM) was 0.589 µM, the GI50 (SR) was 0.303 µM and the GI50 (NCI-H522) was 0.335 µM. For the same compound, the GI50 (SK-MEL-5) was 0.3 µM, the GI50 (SK-MEL-28) was 0.829 µM and the GI50 (HL-60(TB)) was 0.387 µM. The GI50 (HOP-92) was 0.054 µM, the GI50 (K562) was 0.437 µM and the GI50 (KM12) was 0.62 µM. The GI50 (MCF7) was 0.368 µM, the GI50 (SF-295) was 0.329 µM and the GI50 (SK-MEL-2) was 0.873 µM. The GI50 [2] was 23.4 µM, the GI50 (NCI-H460) was 0.396 µM and the GI50 (SF-268) was 10.2 µM. The GI50 (OVCAR-8) was 1.63 µM, the GI50 (SNB-75) was 0.392 µM and the GI50 (T47D) was 0.804 µM. For the same compound, the GI50 (LOX IMVI) was 3.31 µM, the GI50 (HT-29) was 0.395 µM and the GI50 (SK-OV-3) was 0.723 µM. The GI50 (OVCAR-4) was 1.75 µM, the GI50 (HCT-116) was 0.537 µM and the GI50 [3] was 1.96 µM. The GI50 (BT-549) was 6.06 µM, the GI50 (RXF 393) was 0.363 µM and the GI50 (MDA-MB-468) was 0.204 µM. For the same compound, the GI50 (HOP-62) was 0.838 µM, the GI50 (MDA-MB-231) was 0.184 µM and the GI50 (MDA-MB-435) was 0.184 µM. For the same compound, the GI50 (SW-620) was 0.418 µM, the GI50 (SF-539) was 0.517 µM and the GI50 (TK-10) was 8.31 µM.
`CCOc1ccc(C(=O)N2c3ccccc3Sc3ccccc32)cc1Cl` gave a GI50 (UACC-62) of 0.451 µM, a GI50 (M14) of 0.373 µM and a GI50 (IGROV-1) of 1.02 µM. The GI50 (OVCAR-3) was 0.231 µM, the GI50 (ACHN) was 0.447 µM and the GI50 (DU-145) was 0.476 µM. For the same compound, the GI50 (SN12C) was 0.777 µM, the GI50 (PC-3) was 0.39 µM and the GI50 (A498) was 0.21 µM. The GI50 (786-0) was 0.481 µM, the GI50 (CAKI-1) was 0.457 µM and the GI50 (OVCAR-5) was 0.527 µM. The inhibition (Ovis aries) was 48%, the GI50 (MOLT-4) was 0.408 µM and the GI50 (Malme-3M) was 0.446 µM. It also gave a GI50 (COLO 205) of 0.354 µM, a GI50 (NCI-H23) of 0.999 µM and a GI50 (RPMI-8226) of 0.424 µM. It also gave a GI50 (A549) of 0.62 µM, a GI50 (HCT-15) of 0.373 µM and a GI50 [1] of 0.376 µM. It also gave a GI50 (CCRF-CEM) of 0.361 µM, a GI50 (SR) of 0.142 µM and a GI50 (NCI-H522) of 0.221 µM. The GI50 (SK-MEL-5) was 0.333 µM, the GI50 (SK-MEL-28) was 0.817 µM and the GI50 (HL-60(TB)) was 0.315 µM. For the same compound, the GI50 (HOP-92) was 0.272 µM, the GI50 (K562) was 0.277 µM and the GI50 (KM12) was 0.426 µM. It also gave a GI50 (MCF7) of 0.419 µM, a GI50 (UACC-257) of 0.564 µM and a GI50 (SF-295) of 0.254 µM. For the same compound, the GI50 (SK-MEL-2) was 0.395 µM, the GI50 [2] was 2.7 µM and the GI50 (NCI-H460) was 0.368 µM. For the same compound, the GI50 (SF-268) was 1.76 µM, the GI50 (OVCAR-8) was 0.596 µM and the GI50 (SNB-75) was 0.283 µM. The GI50 (T47D) was 0.466 µM, the GI50 (LOX IMVI) was 0.75 µM and the GI50 (HT-29) was 0.32 µM. The GI50 (SK-OV-3) was 0.623 µM, the GI50 (OVCAR-4) was 3.75 µM and the GI50 (HCT-116) was 0.457 µM. For the same compound, the GI50 [3] was 0.573 µM, the GI50 (BT-549) was 0.613 µM and the GI50 (RXF 393) was 0.236 µM. It also gave a GI50 (MDA-MB-468) of 0.257 µM, a GI50 (HOP-62) of 0.512 µM and a GI50 (MDA-MB-231) of 0.531 µM. It also gave a GI50 (MDA-MB-435) of 0.095 µM, a GI50 (SW-620) of 0.349 µM and a GI50 (UO-31) of 0.52 µM. It also gave a GI50 (SF-539) of 0.239 µM and a GI50 (TK-10) of 0.857 µM.

Source: ChEMBL document CHEMBL2331144, “Synthesis and anticancer activity of analogues of phenstatin, with a phenothiazine A-ring, as a new class of microtubule-targeting agents” (Bioorg Med Chem Lett, 2013)
